# Measured values published in PMC6589951 (Therapeutic Advances in Medical Oncology, 2019).
# “Also recorded” adds a separate entry of the source.
# Tests used:
# [1] = system: patients with advanced solid tumors; test: exposure, dosing compliance and actions taken with study drug; type: in vivo, human
# mammary carcinoma = settings: mouse model of mammary carcinoma, cited from earlier work
# CD14dim/CD16+ monocytes = test: blood CD14dim/CD16+ monocyte levels; type: in vivo, human; settings: doses as low as 800 mg daily
# [2] = system: patients with advanced solid tumors; test: phase Ib dose escalation 3+3: DLT, MTD, RP2D; type: in vivo, human
# [3] = pexidartinib plasma pharmacokinetics, cycle 1 day 15; type: in vivo, human; settings: day 15, steady state
# PVNS/TGCT = settings: 1000 mg daily; cited from earlier work
# CSF-1R = settings: read-out: IC50 CSF-1R; ref Investigator's Brochure, 14; cited from earlier work
# osteoclast precursors = settings: RANK-L and CSF-1 dependent manner; ref Investigator's Brochure, 14; cited from earlier work
Structure (SMILES),patients with paclitaxel dose reductions ([1]; Eight patients),omitted paclitaxel doses with AEs as reason ([1]; in vivo),patients with paclitaxel temporarily withheld ([1]; in vivo),survival of study animals (mammary carcinoma; following chemotherapy),tumor growth (mammary carcinoma; following chemotherapy),TAM recruitment following chemotherapy (mammary carcinoma),reduction of CD14dim/CD16+ monocytes in the peripheral blood (CD14dim/CD16+ monocytes),recommended phase II dose (RP2D) ([2]; pexidartinib in combination with weekly paclitaxel 80 mg/m^2),maximum tolerated dose ([2]; pexidartinib up to 1600 mg/day with weekly paclitaxel),dose at which pexidartinib plasma concentration and exposure reached saturation [3],Median PFS (PVNS/TGCT),time in which PRs occurred (PVNS/TGCT),IC50 (CSF-1R),dose reductions as an immediate action following pexidartinib-related AE ([1]; in vivo),patients missing doses of pexidartinib due to AEs of any cause ([1]; in vivo),patients with dose modifications of pexidartinib ([1]; in vivo),patients with pexidartinib dose reductions ([1]; in vivo),differentiation of osteoclast precursors (osteoclast precursors)
"CC(=O)O[C@H]1C(=O)[C@@]2(C)[C@H]([C@H](OC(=O)c3ccccc3)[C@]3(O)C[C@H](OC(=O)[C@H](O)[C@@H](NC(=O)c4ccccc4)c4ccccc4)C(C)=C1C3(C)C)[C@]1(OC(C)=O)CO[C@@H]1C[C@@H]2O [paclitaxel, reference compound]",15%,54%,39%,–,–,–,–,–,–,–,–,–,–,–,–,–,–,–
FC(F)(F)c1ccc(CNc2ccc(Cc3c[nH]c4ncc(Cl)cc34)cn2)cn1 [pexidartinib],–,–,–,improved survival,slower tumor growth,abrogate TAM recruitment,near complete reduction,[…],no maximum tolerated dose was achieved; also recorded: No maximum tolerated dose was determined; also recorded: No maximum tolerated dose was reached,[…],not reached,[…],[…],[…],[…],[…],[…],inhibit differentiation
